The values below come from patent US10544099B2, “Inhibitors of indoleamine 2,3-dioxygenase and methods of their use” (BRISTOL-MYERS SQUIBB COMPANY, priority 2016, dated 2020).

T1 sequence (P14902 whole entry): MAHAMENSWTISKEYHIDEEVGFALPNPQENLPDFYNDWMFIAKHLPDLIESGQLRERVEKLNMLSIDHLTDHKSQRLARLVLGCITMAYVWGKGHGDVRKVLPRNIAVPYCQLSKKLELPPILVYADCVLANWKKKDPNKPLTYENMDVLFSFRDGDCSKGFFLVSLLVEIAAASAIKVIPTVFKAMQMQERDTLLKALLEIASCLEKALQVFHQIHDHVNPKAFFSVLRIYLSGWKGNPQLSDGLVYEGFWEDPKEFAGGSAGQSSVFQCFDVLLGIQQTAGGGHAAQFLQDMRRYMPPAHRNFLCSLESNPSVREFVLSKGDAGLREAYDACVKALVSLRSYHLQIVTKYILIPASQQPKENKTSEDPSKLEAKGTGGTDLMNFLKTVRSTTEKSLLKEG

The experiment concerns the target T1, human IDO1 (Homo sapiens, UniProt P14902).
T1 construct: expressed in transfected cells
Nature of the experiment: HEK Human IDO-1 cell-based IDO inhibition assay. The conditions noted are these: human IDO1/HEK293 cells, 20 hours incubation, kynurenine absorbance at 490 nm; read-out: HEK Human IDO-1 Bio Activity. The protocol: HEK293 cells were transfected with a pCDNA-based mammalian expression vector harboring human IDO1 cDNA (NM 002164.2) by electroporation. They were cultured in medium (DMEM with 10% FBS) containing 1 mg/ml G418 for two weeks. Clones of HEK293 cells that stably expressed human IDO1 protein were selected and expanded for IDO inhibition assay.
The human IDO1/HEK293 cells were seeded at 10,000 cells per 50 μL per well with RPMI/phenol red free media contains 10% FBS in a 384-well black wall clear bottom tissue culture plate (Matrix Technologies LLC) 100 nL of certain concentration of compound was then added to each well using ECHO liquid handling systems. The cells were incubated for 20 hours in 37° C. incubator with 5% CO2.
The compound treatments were stopped by adding trichloroacetic acid (Sigma-Aldrich) to a final concentration at 0.2%. The cell plate was further incubated at 50° C. for 30 minute. The equal volume supernatant (20 μL) and 0.2% (w/v) Ehrlich reagent (4-dimethylaminobenzaldehyde, Sigma-Aldrich) in glacial acetic acid were mixed in a new clear bottom 384-well plate. This plate was then incubated at room temperature for 30 minute. The absorbance at 490 nm was measured on Envision plate reader.
Compound IC50 values were calculated using the counts of 500 nM of a reference standard treatment as one hundred percent inhibition, and counts of no compound but DMSO treatment as zero percent inhibition.
For the compound `CC(NC(=O)Nc1ccc(Cl)cc1)C1CCN(c2ccnc3ccc(F)cc23)CC1` (racemic) [Example 1, (±)-1-(4-Chlorophenyl)-3-(1-(1-(6-fluoroquinolin-4-yl)piperidin-4-yl)ethyl)urea], the IC50 was below 2 µM.

For the compound `O=C(Nc1ccc(Cl)cc1)NC1CC12CCC(c1ccnc3ccc(F)cc13)CC2` (racemic) [Example 2, (±)-1-(4-chlorophenyl)-3-(6-(6-fluoroquinolin-4-yl)spiro [2.5]octan-1-yl)urea], the IC50 was below 2 µM. As to `CC[C@@H](NC(=O)Nc1ccc(Cl)cc1)[C@H]1CC[C@H](Oc2ccnc3ccccc23)CC1` (racemic) [Example 3, (±)-1-(4-chlorophenyl)-3-((R)-1-((trans)-4-(quinolin-4-yloxy)cyclohexyl)propyl)urea], the IC50 was below 0.05 µM.

Consider `Cc1ccc(NC(=O)N[C@H](C)[C@H]2CC[C@@H](c3ccnc4ccc(F)cc43)CC2)cc1` [Example 4, 1-((R)-1-((1s,4s)-4-(6-Fluoroquinolin-4-yl)cyclohexyl)ethyl)-3-p-tolylurea], for which the IC50 is below 0.05 µM.

For the compound `C[C@@H](NC(=O)Nc1ccc(Cl)cc1)[C@H]1CC[C@@H](c2ccnc3ccc(F)cc32)CC1` [Example 5, 1-(4-chlorophenyl)-3-((R)-1-((1s,4S)-4-(6-fluoroquinolin-4-yl)cyclohexyl)ethyl)urea], the IC50 was below 0.05 µM. With `CCOc1ccc(NC(=O)N[C@H](C)[C@H]2CC[C@@H](c3ccnc4ccc(F)cc43)CC2)cc1` [Example 6, 1-(4-ethoxyphenyl)-3-((R)-1-((1s,4S)-4-(6-fluoroquinolin-4-yl)cyclohexyl)ethyl)urea], the IC50 is below 0.05 µM. The figure for `Cc1ccc(NC(=O)N[C@H](C)[C@H]2CC[C@@H](c3ccnc4ccc(F)cc43)CC2)cc1Cl` [Example 7, 1-(3-chloro-4-methylphenyl)-3-((R)-1-((1s,4S)-4-(6-fluoroquinolin-4-yl)cyclohexyl)ethyl)urea] is below 0.05 µM. Turning to `C[C@@H](NC(=O)Nc1ccc(F)cc1)[C@H]1CC[C@@H](c2ccnc3ccc(F)cc32)CC1` [Example 8, 1-(4-fluorophenyl)-3-((R)-1-((1s,4S)-4-(6-fluoroquinolin-4-yl)cyclohexyl)ethyl)urea], the IC50 is below 0.05 µM. Turning to `Cc1ccc(OC(=O)N[C@H](C)[C@H]2CC[C@@H](c3ccnc4ccc(F)cc43)CC2)cc1` [Example 9], the IC50 is below 0.25 µM. For the compound `C[C@@H](NC(=O)Oc1ccc(F)cc1)[C@H]1CC[C@@H](c2ccnc3ccc(F)cc32)CC1` [Example 10, 4-fluorophenyl (R)-1-((1s,4S)-4-(6-fluoroquinolin-4-yl)cyclohexyl)ethylcarbamate], the IC50 was below 0.25 µM. Take `COc1ccc(OC(=O)N[C@H](C)[C@H]2CC[C@@H](c3ccnc4ccc(F)cc43)CC2)cc1` [Example 11, 4-methoxyphenyl (R)-1-((1s,4S)-4-(6-fluoroquinolin-4-yl)cyclohexyl)ethylcarbamate]: the IC50 is below 0.05 µM.
